US20190091168A1, “FORMULATION FOR ENHANCED TRANSDERMAL ABSORPTION OF DRUG” (UNIST(ULSAN NATIONAL INSTITUTE OF SCIENCE AND TECHNOLOGY), priority 2017, published 2019)

Key:
Type in all cases: in vivo
[1] = test system: SOX-2; experiment: SOX-2 expression in skin tissue after oral administration (fluorescence imaging); settings: 100 μg/Kg/0.1 ml twice a week, 2 months, APP/PS/Tau mouse
Protocol: (§1) Accordingly, the present inventors examined whether expressions of hair growth stimulating factors, SOX-2 and SOX-9 were increased in hair loss animal models by the benzene diamine derivatives of the present disclosure. In order to examine SOX-2 and SOX-9 expressions inside skin tissues, APP/PS/Tau mouse which is a hair loss-induced mouse model was selected as a control group and C57BL6 mouse was selected as a normal group, as in Example 5. An experimental group was prepared by orally administering the control group with the benzene diamine derivative at a concentration of 100 μg/Kg/0.1 ml using a zonde twice a week. 2 months later, incision of the skin was performed under local anesthesia, and the skin tissues were fixed in 4% paraformaldehyde solution for 24 hours, and fixed in a plastic mold with O.C.T. Compound (SAKURA, USA) for cryostat sectioning. […] Thereafter, the plate was put on a slide glass and covered with a cover slide, and stored in a dark acrylic box, and fluorescence imaging was observed under a confocal microscope (LSM710, Carl Zeiss, Germany) by 405/488/565 nm laser. […]

[2] = test system: hair loss mouse model APP/PS/Tau; experiment: Hair loss mouse model, oral administration, changes in appearance; settings: 100 μg/Kg twice a week for 2 months
Text: (§2) APP/PS/Tau was purchased as a dementia mouse model from Jackson lab (BAR HARBOR, USA), and APP/Tau female and APP/PSen1de9 purchased from Taconic (Hudson, USA) were cross-mated for 6 generations, and 4-month-old mouse models were obtained from F1.
In order to examine therapeutic effects of the benzene diamine derivative of the present disclosure on hair loss, the benzene diamine derivative was orally administered to hair loss-induced mouse models, and changes in appearance were examined. The animal model of Experimental Example 2-1 was characterized by appearance of hair loss as well as dementia symptoms. Therefore, the animal model of Experimental Example 2-1 was used as a hair loss mouse model.
The hair loss mouse models were divided into groups of 6 mice, and among the hair loss mouse models, the control group were orally administered with a phosphate buffer vehicle (PBS) for 2 months, and the experimental group was orally administered with 100 μl of N1-(pyridin-2-ylmethyl)benzene-1,4-diamine (Compound 2) at a concentration of 100 μg/Kg twice a week for 2 months. Thereafter, changes in their appearance were compared.

[3] = test system: dementia mouse model APP/PS/Tau; experiment: Morris water maze test in dementia mouse model; settings: for mean escape latency: 100 μg/kg twice a week for 2 months
Text: as §2
In order to examine therapeutic effects of the benzene diamine derivative of the present disclosure on dementia, enhancement of spatial cognition and memory in dementia mouse models were investigated. For this investigation, a Morris water maze (Harvard Apparatus, USA) test was performed.
In detail, a water maze composed of a stainless steel pool with a diameter of 150 cm×a height of 60 cm and an escape platform (10 cm in diameter, 30 cm in height) was filled with water at […], and the height was 2 cm above the platform such that when a mouse sat on the escape platform, the body was allowed to come out of the water. […] Escape latency was measured as the time taken for the experimental animal to go to the escape platform when the experimental animal went to the escape platform and stayed thereon for more than 20 seconds. This test was performed three times a day, and a mean value was determined as mean escape latency. The escape latency was recorded on the computer program (Smart Video Tracking System V3.0, PanLab SL, Barcelona, Spain) by installing a camera on the ceiling above the water tank. The experiment was performed three times a day for 6 days, and at this time, the possibility of accidentally visiting the escape platform was minimized by sequentially changing the positions of the experimental animals in the water tank. In the experiment, a normal mouse, a control dementia mouse administered with a vehicle (PBS) and an experimental dementia mouse administered with 100 μg/kg of N^1-(pyridin-2-ylmethyl)benzene-1,4-diamine (Compound 2) twice a week for 2 months were used after completing administration.

[4] = test system: SOX-9; experiment: SOX-9 expression in skin tissue after oral administration (fluorescence imaging); settings: 100 μg/Kg/0.1 ml twice a week, 2 months, APP/PS/Tau mouse
Protocol: as §1

[5] = test system: monomer/oligomer Aβ; experiment: Monomer/oligomer Aβ expression in skin tissue after oral administration (fluorescence imaging); settings: 100 μg/Kg/0.1 ml twice a week, 2 months, APP/PS/Tau mouse

What does the source list for “N^1-(pyridin-2-ylmethyl)benzene-1,4-diamine [Compound 2]”?
SOX-2 expression in skin [1]: remarkably expressed close to the normal group; changes in appearance (hair loss) [2]: remarkable improvement in hair loss; mean escape latency ([3]; at 3 days, compared with dementia control group): significantly short mean escape latency; difference of mean escape latency, control group vs experimental group ([3]; at 4 days): 16 s; mean escape latency ([3]; at 4 days): 26 ± 1 s; difference of mean escape latency, dementia group vs treated group ([3]; at 5 days): 19 s; mean escape latency ([3]; at 5 days): 24 ± 1 s; SOX-9 expression in skin [4]: remarkably increased; monomer/oligomer Aβ expression in skin [5]: decreased
